Laboratory results reported in patent US20240024307A1, “PHARMACEUTICAL COMBINATION OF A CORTICOSTEROID AND AN ANTIHISTAMINE FOR THE TREATMENT AND CONTROL OF THE INFLAMMATORY COMPONENT OF ALLERGIC PROCESSES” (priority 2020, published 2024).

How the values were obtained:
[1] = Comparative bioavailability study, 5 mg desloratadine and 0.25 mg betamethasone alone or in combination, single dose, healthy subjects, fasting; details: analyte desloratadine, 5 mg single dose
Excerpt: The study design was crossover, 3×6×3 open, prospective, and longitudinal, truncated to single dose.
Three treatments, three periods, six sequences with an elimination period of 14 days and with a total of 24 healthy subjects of both genders, in fasting conditions.

[2] = 40° C. and 75% RH; alone or in combination with various excipients; cited from earlier work

## Clc1ccc2c(c1)CCc1cccnc1C2=C1CCNCC1 [Desloratadine, desloratadine]
[1]
  Elimination constant Ke: 0.0408 ± 0.009 h⁻¹
[2]
  colour stability: exhibits color changes
